Measured values as given in US20260317312A1, “ISOXAZOLIDINES AS RIPK1 INHIBITORS AND USE THEREOF” (GENZYME CORPORATION, priority 2023, published 2026).

Key:
[1] = molecular target: T1, hRIPK1 (aa 1-375) fusion protein (Homo sapiens, UniProt Q13546); assay: Receptor-Interacting Protein Kinase 1 inhibition, ADP Glo assay (conversion of ATP to ADP due to autophosphorylation); type: biochemical; conditions: ATP 50 μM, 30 min preincubation, 240 min incubation, room temperature, DMSO 1%
T1 construct: hRIPK1 (aa 1-375) fusion protein
T1 sequence (Q13546 1-375): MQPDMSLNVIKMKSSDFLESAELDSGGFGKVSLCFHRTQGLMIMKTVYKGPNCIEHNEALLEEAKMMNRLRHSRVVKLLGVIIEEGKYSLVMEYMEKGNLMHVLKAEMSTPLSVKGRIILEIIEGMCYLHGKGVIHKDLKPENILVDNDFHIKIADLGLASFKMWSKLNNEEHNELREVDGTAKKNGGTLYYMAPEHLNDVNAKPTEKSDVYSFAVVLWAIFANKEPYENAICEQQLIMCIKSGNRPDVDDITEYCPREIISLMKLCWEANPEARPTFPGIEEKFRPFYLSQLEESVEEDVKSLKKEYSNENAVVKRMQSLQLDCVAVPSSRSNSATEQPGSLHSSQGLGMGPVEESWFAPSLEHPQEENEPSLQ
Procedure, shortened: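 The readout was ADP-Glo luminescence after a 240 min rt autophosphorylation reaction with 50 μM ATP, following 30 min preincubation of 3.6 μg/ml hRIPK1 (aa 1-375) fusion with compound at 33300-1.69 nM final in 1% DMSO. Values came from Levenberg-Marquardt nonlinear fits.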

U937 cells = assay: Cellular assay in U937 cells to measure activity of RIPK1-inhibitors on cell death (necroptosis); type: cell-based; conditions: Homo sapiens, U-937, TNFα/zVAD.fmk induced cell death (necroptosis), overnight (18 to 24 hrs), 37° C., MTS readout

Row | Structure (SMILES) | IC50 [1] | IC50 (U937 cells)
1 | N#Cc1cc(F)cc(OC[C@H]2CC[C@@H](C(=O)N3OCC[C@H]3c3cc(F)cc(F)c3)CC2)c1 [Compound 53, cis-3-((4-((S)-3-(3,5-difluorophenyl)isoxazolidine-2-carbonyl)cyclohexyl)methoxy)-5-fluorobenzonitrile] | 18 nM | 17 nM
2 | NC(=O)c1cc(OC[C@H]2CC[C@@H](C(=O)N3OCC[C@H]3c3cc(F)cc(F)c3)CC2)ncn1 [Compound 54, cis-6-((4-((S)-3-(3,5-difluorophenyl)isoxazolidine-2-carbonyl)cyclohexyl)methoxy)pyrimidine-4-carboxamide] | 80 nM | 364 nM
3 | N#Cc1cc(OC[C@H]2CC[C@@H](C(=O)N3OCC[C@H]3c3cc(F)cc(F)c3)CC2)ncn1 [Compound 55, cis-6-((4-((S)-3-(3,5-difluorophenyl)isoxazolidine-2-carbonyl)cyclohexyl)methoxy)pyrimidine-4-carbonitrile] | 56 nM | 1530 nM
4 | O=C([C@H]1CC[C@@H](COc2cc(Cl)ncn2)CC1)N1OCC[C@H]1c1cc(F)cc(F)c1 [Compound 56, cis-(4-(((6-chloropyrimidin-4-yl)oxy)methyl)cyclohexyl)((S)-3-(3,5-difluorophenyl)isoxazolidin-2-yl)methanone] | 47 nM | 125 nM
5 | CC1(C)OC(=O)N(c2ccc(Cl)c(OC[C@H]3CC[C@H](C(=O)N4OCC[C@H]4c4cc(F)cc(F)c4)CC3)c2)C1=O [Compound 57, trans-3-(4-chloro-3-((4-((S)-3-(3,5-difluorophenyl)isoxazolidine-2-carbonyl)cyclohexyl)methoxy)phenyl)-5,5-dimethyloxazolidine-2,4-dione] | 38 nM | 37 nM
6 | O=C1CCC(=O)N1c1ccc(Cl)c(OC[C@H]2CC[C@H](C(=O)N3OCC[C@H]3c3cc(F)cc(F)c3)CC2)c1 [Compound 58, trans-1-(4-chloro-3-((4-((S)-3-(3,5-difluorophenyl)isoxazolidine-2-carbonyl)cyclohexyl)methoxy)phenyl)pyrrolidine-2,5-dione] | 44 nM | 104 nM
7 | CC1(C)OC(=O)N(c2ccc(F)c(OC[C@H]3CC[C@H](C(=O)N4OCC[C@H]4c4cc(F)cc(F)c4)CC3)c2)C1=O [Compound 59, trans-3-(3-((4-((S)-3-(3,5-difluorophenyl)isoxazolidine-2-carbonyl)cyclohexyl)methoxy)-4-fluorophenyl)-5,5-dimethyloxazolidine-2,4-dione] | 29 nM | 30 nM
8 | O=C1CCCN1c1ccc(Cl)c(OC[C@H]2CC[C@H](C(=O)N3OCC[C@H]3c3cc(F)cc(F)c3)CC2)c1 [Compound 60, trans-1-(4-chloro-3-((4-((S)-3-(3,5-difluorophenyl)isoxazolidine-2-carbonyl)cyclohexyl)methoxy)phenyl)pyrrolidin-2-one] | 76 nM | 112 nM
9 | N#Cc1cc(F)cc(O[C@H]2C[C@@H](C(=O)N3OCC[C@H]3c3cc(F)cc(F)c3)C2)c1 [Compound 61, cis-3-(3-((S)-3-(3,5-difluorophenyl)isoxazolidine-2-carbonyl)cyclobutoxy)-5-fluorobenzonitrile] | 54 nM | 126 nM
10 | Cc1cc(C)n(-c2ccc(OC[C@H]3CC[C@H](C(=O)N4OCC[C@H]4c4cc(F)cc(F)c4)CC3)c(F)c2)n1 [Compound 62, trans-((S)-3-(3,5-difluorophenyl)isoxazolidin-2-yl)(4-((4-(3,5-dimethyl-1H-pyrazol-1-yl)-2-fluorophenoxy)methyl)cyclohexyl)methanone] | 28 nM | 34 nM
11 | CN1CC(=O)N(c2ccc(Cl)c(OC[C@H]3CC[C@H](C(=O)N4OCC[C@H]4c4cc(F)cc(F)c4)CC3)c2)C1=O [Compound 63, trans-3-(4-chloro-3-((4-((S)-3-(3,5-difluorophenyl)isoxazolidine-2-carbonyl)cyclohexyl)methoxy)phenyl)-1-methylimidazolidine-2,4-dione] | 44 nM | 45 nM
12 | Cc1nnc(C)n1-c1ccc(F)c(OC[C@H]2CC[C@H](C(=O)N3OCC[C@H]3c3cc(F)cc(F)c3)CC2)c1 [Compound 64, trans-((S)-3-(3,5-difluorophenyl)isoxazolidin-2-yl)(4-((5-(3,5-dimethyl-4H-1,2,4-triazol-4-yl)-2-fluorophenoxy)methyl)cyclohexyl)methanone] | 56 nM | 529 nM
13 | N#Cc1cc(O[C@H]2C[C@@H](C(=O)N3OCC[C@H]3c3cc(F)cc(F)c3)C2)ccc1F [Compound 65, cis-5-(3-((S)-3-(3,5-difluorophenyl)isoxazolidine-2-carbonyl)cyclobutoxy)-2-fluorobenzonitrile] | 18 nM | 49 nM
14 | NS(=O)(=O)c1cccc(OC[C@H]2CC[C@H](C(=O)N3OCC[C@H]3c3cc(F)cc(F)c3)CC2)c1 [Compound 66, trans-3-((4-((S)-3-(3,5-difluorophenyl)isoxazolidine-2-carbonyl)cyclohexyl)methoxy)benzenesulfonamide] | 35 nM | 8 nM
15 | Cc1nnc(C)n1-c1ccc(OC[C@H]2CC[C@H](C(=O)N3OCC[C@H]3c3cc(F)cc(F)c3)CC2)c(F)c1 [Compound 67, trans-((S)-3-(3,5-difluorophenyl)isoxazolidin-2-yl)(4-((4-(3,5-dimethyl-4H-1,2,4-triazol-4-yl)-2-fluorophenoxy)methyl)cyclohexyl)methanone] | 46 nM | 128 nM
16 | Cn1ccn(-c2ccc(OC[C@H]3CC[C@H](C(=O)N4OCC[C@H]4c4cc(F)cc(F)c4)CC3)c(F)c2)c1=O [Compound 68, trans-1-(4-((4-((S)-3-(3,5-difluorophenyl)isoxazolidine-2-carbonyl)cyclohexyl)methoxy)-3-fluorophenyl)-3-methyl-1,3-dihydro-2H-imidazol-2-one] | 19 nM | 8 nM
17 | O=C([C@H]1C[C@@H](n2cnc3cc(F)ccc32)C1)N1OCC[C@H]1c1cc(F)cc(F)c1 [Compound 69, cis-((S)-3-(3,5-difluorophenyl)isoxazolidin-2-yl)(3-(5-fluoro-1H-benzo[d]imidazol-1-yl)cyclobutyl)methanone] | 26 nM | 35 nM
18 | N#Cc1cc(F)cc([C@@H]2CCON2C(=O)[C@H]2C[C@@H](n3cnc4cc(F)ccc43)C2)c1 [Compound 70, cis-3-fluoro-5-((S)-2-(3-(5-fluoro-1H-benzo[d]imidazol-1-yl)cyclobutane-1-carbonyl)isoxazolidin-3-yl)benzonitrile] | 39 nM | 349 nM
19 | N#Cc1cccc(OC[C@H]2CC[C@H](C(=O)N3OCC[C@H]3c3cncc(C#N)c3)CC2)c1 [Compound 71, trans-5-((S)-2-(4-((3-cyanophenoxy)methyl)cyclohexane-1-carbonyl)isoxazolidin-3-yl)nicotinonitrile] | 14 nM | 6 nM
20 | N#Cc1cncc([C@@H]2CCON2C(=O)[C@H]2CC[C@H](COc3ccc(F)c(C#N)c3)CC2)c1 [Compound 72, trans-5-((S)-2-(4-((3-cyano-4-fluorophenoxy)methyl)cyclohexane-1-carbonyl)isoxazolidin-3-yl)nicotinonitrile] | 15 nM | 13 nM
21 | N#Cc1cncc([C@@H]2CCON2C(=O)[C@H]2CC[C@H](COc3cccc(C(N)=O)c3)CC2)c1 [Compound 73, trans-3-((4-((S)-3-(5-cyanopyridin-3-yl)isoxazolidine-2-carbonyl)cyclohexyl)methoxy)benzamide] | 29 nM | 26 nM
22 | N#Cc1cncc([C@@H]2CCON2C(=O)[C@H]2CC[C@H](COc3ccc(F)c(C(N)=O)c3)CC2)c1 [Compound 74, trans-5-((4-((S)-3-(5-cyanopyridin-3-yl)isoxazolidine-2-carbonyl)cyclohexyl)methoxy)-2-fluorobenzamide] | 24 nM | 82 nM
23 | N#Cc1cncc([C@@H]2CCON2C(=O)[C@H]2CC[C@H](COc3ccc(Cl)c(C(N)=O)c3)CC2)c1 [Compound 75, trans-2-chloro-5-((4-((S)-3-(5-cyanopyridin-3-yl)isoxazolidine-2-carbonyl)cyclohexyl)methoxy)benzamide] | 43 nM | 224 nM
24 | Cc1cc(C)n(-c2ccc(OC[C@H]3CC[C@H](C(=O)N4OCC[C@H]4c4cc(F)cc(C#N)c4)CC3)c(F)c2)n1 [Compound 76, trans-3-((S)-2-(4-((4-(3,5-dimethyl-1H-pyrazol-1-yl)-2-fluorophenoxy)methyl)cyclohexane-1-carbonyl)isoxazolidin-3-yl)-5-fluorobenzonitrile] | 47 nM | 47 nM
25 | N#Cc1cc(F)cc([C@@H]2CCON2C(=O)[C@H]2CC[C@H](COc3cccc(S(N)(=O)=O)c3)CC2)c1 [Compound 77, trans-3-((4-((S)-3-(3-cyano-5-fluorophenyl)isoxazolidine-2-carbonyl)cyclohexyl)methoxy)benzenesulfonamide] | 53 nM | 48 nM
26 | Cn1ccn(-c2ccc(OC[C@H]3CC[C@H](C(=O)N4OCC[C@H]4c4cc(F)cc(C#N)c4)CC3)c(F)c2)c1=O [Compound 78, trans-3-fluoro-5-((S)-2-(4-((2-fluoro-4-(3-methyl-2-oxo-2,3-dihydro-1H-imidazol-1-yl)phenoxy)methyl)cyclohexane-1-carbonyl)isoxazolidin-3-yl)benzonitrile] | 43 nM | 9 nM
